Test systems include T-47D breast; TK-10 renal; NCI/ADR-RES ovarian; HOP-62 NSCLC; SW-620 colon; M14 melanoma; U251 CNS; MCF7 breast; NCI-H226 lung; K-562 leukemia.
What all share (assay): NCI tumour cell line growth inhibition, 48 h

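Five compound concentrations were applied to cells in 96-well plates for 48 hours; endpoints were derived by simple linear interpolation of the resulting dose-response curve. At the GI50, growth is halved. TGI: concentration producing complete growth inhibition.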

As for `C[C@H]1CCC/C=C/[C@@H]2C[C@H](O)C[C@H]2[C@H](O)C(O)C(O)C(=O)O1` (stereo partly drawn), the GI50 is 5.96 µM in the test on T-47D breast; 6.42 µM with TK-10 renal; 1.62 µM in the test on NCI/ADR-RES ovarian; 4.85 µM in the test with HOP-62 NSCLC; 3260 nM in the test on SW-620 colon; 3.61 µM with M14 melanoma. The GI50 was 3.51 µM in the test with U251 CNS, 2640 nM in the test with MCF7 breast, 0.189 µM in the test on NCI-H226 lung and 2380 nM with K-562 leukemia. Also, the TGI with T-47D breast, in the test on TK-10 renal, with HOP-62 NSCLC, in the test on SW-620 colon, in the test with M14 melanoma and with U251 CNS was more than 100 µM throughout. For the same compound, the TGI in the test with MCF7 breast is more than 20.1 µM; in the test with NCI-H226 lung, 0.399 µM; with K-562 leukemia, more than 23.6 µM.
Consider `CCOC(=O)c1c(C)n(Cc2ccc(Cl)cc2Cl)c2c1cc(O)c1[nH]c(Cc3ccccc3)nc12`, for which the GI50 in the test with T-47D breast was 5.27 µM; in the test with TK-10 renal, 7.07 µM; in the test on NCI/ADR-RES ovarian it was 4.79 µM; in the test on HOP-62 NSCLC it was 4.61 µM; in the test with SW-620 colon it was 2210 nM; in the test with M14 melanoma, 11 µM. Further, the GI50 with U251 CNS was 3.41 µM; in the test with MCF7 breast it was 3240 nM; in the test on NCI-H226 lung it was 14 µM; with K-562 leukemia, 2940 nM. The TGI in the test with T-47D breast is 25.9 µM; with TK-10 renal it was 29 µM; in the test on NCI/ADR-RES ovarian it was 17.3 µM; in the test with HOP-62 NSCLC, 19.4 µM; in the test on SW-620 colon it was 6.02 µM; with M14 melanoma it was 37.5 µM. Further, the TGI was 12.1 µM in the test with U251 CNS, 10.1 µM with MCF7 breast, 30.9 µM in the test on NCI-H226 lung and 10.7 µM in the test with K-562 leukemia.
As for `CC(=O)OC1C(C)OC(Oc2c(-c3ccc(O)cc3)oc3cc(O)cc(O)c3c2=O)C(O)C1OC(C)=O` (stereo not drawn), the GI50 in the test on T-47D breast is 23.4 µM; in the test on TK-10 renal, 31.9 µM; with NCI/ADR-RES ovarian it was more than 100 µM; in the test on HOP-62 NSCLC, 35.9 µM; with SW-620 colon it was 35800 nM; in the test with M14 melanoma, 33.5 µM. The GI50 in the test with U251 CNS is 32.1 µM; in the test on MCF7 breast, 28300 nM; with NCI-H226 lung, 36.9 µM; in the test on K-562 leukemia, 30800 nM. Moreover, the TGI with T-47D breast is 68.6 µM; with TK-10 renal, more than 90.8 µM; with NCI/ADR-RES ovarian, more than 100 µM; in the test with HOP-62 NSCLC, more than 100 µM; in the test with SW-620 colon, more than 100 µM; with M14 melanoma it was more than 100 µM. The TGI in the test on U251 CNS, in the test with MCF7 breast, in the test on NCI-H226 lung and in the test on K-562 leukemia was more than 100 µM throughout.
As for `NC(=O)c1c(NC(=O)c2ccc(C(F)(F)F)cc2Cl)sc2c1CCC(=O)C2`, the GI50 is 0.238 µM in the test with T-47D breast; 0.423 µM with TK-10 renal; 0.448 µM with NCI/ADR-RES ovarian; 1.25 µM in the test on HOP-62 NSCLC; 176 nM in the test on SW-620 colon; 0.355 µM in the test with M14 melanoma. The GI50 in the test on U251 CNS is 0.27 µM; with MCF7 breast, 279 nM; in the test on NCI-H226 lung it was 1.34 µM; in the test on K-562 leukemia, 126 nM. In addition, the TGI in the test on T-47D breast was 4.73 µM; in the test on TK-10 renal it was 4.07 µM; with NCI/ADR-RES ovarian it was 3.38 µM; with HOP-62 NSCLC, more than 44.5 µM; in the test with SW-620 colon, 1.36 µM; with M14 melanoma it was 1.89 µM. Also, the TGI with U251 CNS turned out to be 1.75 µM; in the test on MCF7 breast it was 4.08 µM; in the test on NCI-H226 lung, 5.85 µM.
Turning to `COc1cccc(/C=C2\COc3ccc(O)c(O)c3C2=O)c1OC`, the GI50 with T-47D breast is 1.66 µM; in the test with TK-10 renal it was 2.36 µM; in the test on NCI/ADR-RES ovarian it was 3.48 µM; with HOP-62 NSCLC, 8.79 µM; in the test on SW-620 colon, 2100 nM; with M14 melanoma, 2.56 µM. Besides, the GI50 with U251 CNS is 2 µM; in the test on MCF7 breast, 1760 nM; in the test with NCI-H226 lung, 10.7 µM; in the test on K-562 leukemia, 1470 nM. Further, the TGI stood at 22.1 µM with T-47D breast; 8.19 µM in the test on TK-10 renal; 97.2 µM in the test with NCI/ADR-RES ovarian; 22.8 µM in the test with HOP-62 NSCLC; 5.44 µM with SW-620 colon; 9.3 µM in the test on M14 melanoma. Moreover, the TGI was 10.5 µM with U251 CNS, 14.9 µM in the test with MCF7 breast, 51.2 µM in the test on NCI-H226 lung and more than 100 µM in the test on K-562 leukemia.
Regarding `Nc1ncnc2occ(-c3ccc(NC(=O)Nc4cccc(C(F)(F)F)c4)cc3)c12`, the GI50 in the test with T-47D breast was 5.22 µM; in the test on TK-10 renal, 2.9 µM; in the test on NCI/ADR-RES ovarian it was 4.51 µM; in the test on HOP-62 NSCLC, 5.09 µM; in the test with SW-620 colon it was 6770 nM; in the test with M14 melanoma it was 3.2 µM. For the same compound, the GI50 was 5.27 µM with U251 CNS, 2340 nM in the test with MCF7 breast, 0.367 µM in the test on NCI-H226 lung and 1300 nM in the test on K-562 leukemia. The TGI is 15 µM with T-47D breast; 11.8 µM with TK-10 renal; 16.2 µM with NCI/ADR-RES ovarian; 10 µM with HOP-62 NSCLC; 20.2 µM in the test with SW-620 colon; 9.19 µM with M14 melanoma. In addition, the TGI is 16.5 µM in the test with U251 CNS, 19.3 µM in the test with MCF7 breast, 6.1 µM with NCI-H226 lung and 25 µM in the test with K-562 leukemia.
